# Source: patent US20120134948A1, “ANTIMICROBIAL ETHER GUANIDINES” (EVONIK GOLDSCHMIDT GMBH, priority 2009, published 2012)
# Columns and labels:
# Format in all cases: cell-based
# test microorganisms = experiment: Antimicrobial activity test, overall statement; conditions: overall observation; microbial count in negative controls unchanged
# Procedure: (§1) The test microorganisms were inoculated from a strain culture into an agar-containing Caso medium (Merck, Darmstadt, Germany) and incubated for 24 h to 48 hours at 25 to 37° C., depending on the microorganism. A Caso slanted agar tube was inoculated with this preculture and again incubated under identical conditions.
# (§2) To prepare the microorganism suspension to be tested, the microorganisms were washed off with 5 ml of phosphate-buffer saline (PBS, 50 mM potassium phosphate pH6, 100 mM NaCl), made up to 12.5 ml with PBS and resuspended by vortexing. To carry out the following test, this microorganism suspension was diluted to a microbial count of from 2U+5 to 8U+5.
# The products to be tested made as a stock solution; they contained 10 g of ethanol, 0.68 g of macrogol glycerol hydroxystearate 40 (Cremophor® RH40, Omikron, Neckarwestheim, Germany), 1 g of the active substance to be tested and 38.32 g of double-distilled water. […]
# (§3) To carry out the test, 1 ml-Eppendorf cubes were filled with 500 μl of microorganism suspension and with 500 μl stock solution and the contents were mixed carefully. After 20 min, 1 h and 3 h, respectively, 10 μl were removed from the tubes, and the live microbial count (colony-forming units, CFU) were determined by plating out various dilution of these test mixtures on Caso agar.
# Malassezia furfur = experiment: Antimicrobial activity, live microbial count (CFU) after contact in suspension
# Procedure: as §1, §2
# (§4) The products to be tested made as a stock solution; they contained 10 g of ethanol, 0.68 g of macrogol glycerol hydroxystearate 40 (Cremophor® RH40, Omikron, Neckarwestheim, Germany), 1 g of the active substance to be tested and 38.32 g of double-distilled water. This solution was mixed with the microorganism suspension at a ratio of 1:1 in the test and gave an active substance concentration in the test of 1%. If it was intended to test a lower active substance concentration than 1%, the stock solution of the active substance was made up at a correspondingly lower concentration. The substances tested were the ether guanidine of example 1, and double distilled water by way of negative control.
# as §3
# Streptococcus mutans = experiment: as above
# Procedure: as §1, §2, §4, §3
# Candida albicans = experiment: as above
# Procedure: as §1, §2, §4, §3
# Propionibacterium acnes = experiment: as above
# Procedure: as §1, §2, §4, §3
# Corynebacterium xerosis = experiment: as above
# Procedure: as §1, §2, §4, §3
# [1] = test system: Staphylococcus epidermidis; experiment: as above
# Procedure: as §1, §2, §4, §3
# [2] = 1% Ex. 1, 0 min (starting count)
substance,measurement,setting,value
C12-15-oxypropylguanidinium chloride [Ex. 1],antimicrobial activity,test microorganisms,pronounced antimicrobial activity
same,CFU/ml 0 min,Malassezia furfur; [2],1.4E+5 CFU/ml
same,CFU/ml 20 min,"Malassezia furfur; 1% Ex. 1, 20 min",<2.0E+2 CFU/ml
same,CFU/ml 60 min,"Malassezia furfur; 1% Ex. 1, 60 min",<2.0E+2 CFU/ml
same,CFU/ml 180 min,"Malassezia furfur; 1% Ex. 1, 180 min",<2.0E+2 CFU/ml
same,CFU/ml 0 min,Streptococcus mutans; [2],3.2E+5 CFU/ml
same,CFU/ml 20 min,"Streptococcus mutans; 1% Ex. 1, 20 min",<2.0E+2 CFU/ml
same,CFU/ml 60 min,"Streptococcus mutans; 1% Ex. 1, 60 min",<2.0E+2 CFU/ml
same,CFU/ml 180 min,"Streptococcus mutans; 1% Ex. 1, 180 min",<2.0E+2 CFU/ml
same,CFU/ml 0 min,"Candida albicans; 0.01% Ex. 1, 0 min (starting count)",3.9E+5 CFU/ml
same,CFU/ml 20 min,"Candida albicans; 0.01% Ex. 1, 20 min",4.7E+5 CFU/ml
same,CFU/ml 60 min,"Candida albicans; 0.01% Ex. 1, 60 min",2.2E+5 CFU/ml
same,CFU/ml 180 min,"Candida albicans; 0.01% Ex. 1, 180 min",6.1E+4 CFU/ml
same,CFU/ml 0 min,"Candida albicans; 0.1% Ex. 1, 0 min (starting count)",3.9E+5 CFU/ml
same,CFU/ml 20 min,"Candida albicans; 0.1% Ex. 1, 20 min",5.5E+5 CFU/ml
same,CFU/ml 60 min,"Candida albicans; 0.1% Ex. 1, 60 min",4.3E+4 CFU/ml
same,CFU/ml 180 min,"Candida albicans; 0.1% Ex. 1, 180 min",<2.0E+2 CFU/ml
same,CFU/ml 0 min,Candida albicans; [2],3.9E+5 CFU/ml
same,CFU/ml 20 min,"Candida albicans; 1% Ex. 1, 20 min",<2.0E+2 CFU/ml
same,CFU/ml 60 min,"Candida albicans; 1% Ex. 1, 60 min",<2.0E+2 CFU/ml
same,CFU/ml 180 min,"Candida albicans; 1% Ex. 1, 180 min",<2.0E+2 CFU/ml
same,CFU/ml 0 min,Propionibacterium acnes; [2],2.0E+5 CFU/ml
same,CFU/ml 20 min,"Propionibacterium acnes; 1% Ex. 1, 20 min",<2.0E+2 CFU/ml
same,CFU/ml 60 min,"Propionibacterium acnes; 1% Ex. 1, 60 min",<2.0E+2 CFU/ml
same,CFU/ml 180 min,"Propionibacterium acnes; 1% Ex. 1, 180 min",<2.0E+2 CFU/ml
same,CFU/ml 0 min,Corynebacterium xerosis; [2],1.7E+5 CFU/ml
same,CFU/ml 20 min,"Corynebacterium xerosis; 1% Ex. 1, 20 min",<2.0E+2 CFU/ml
same,CFU/ml 60 min,"Corynebacterium xerosis; 1% Ex. 1, 60 min",<2.0E+2 CFU/ml
same,CFU/ml 180 min,"Corynebacterium xerosis; 1% Ex. 1, 180 min",<2.0E+2 CFU/ml
same,CFU/ml 0 min,[1]; [2],1.2E+5 CFU/ml
same,CFU/ml 20 min,"[1]; 1% Ex. 1, 20 min",<2.0E+2 CFU/ml
same,CFU/ml 60 min,"[1]; 1% Ex. 1, 60 min",<2.0E+2 CFU/ml
same,CFU/ml 180 min,"[1]; 1% Ex. 1, 180 min",<2.0E+2 CFU/ml
